Consider five molecules from patent publication US20240368125A1, “NOVEL PYRAZINYL-TRIAZOLE COMPOUNDS AS PESTICIDES” (Bayer Aktiengesellschaft, priority 2021, published 2024).

SMILES strings stand for the structures.

Holding throughout (assay type): in vivo
For test [1], the system named is adult mosquitoes Culex quinquefasciatus strain P00. Kind of test: Culex quinquefasciatus test (CULXFA surface treatment & contact assay). Conditions: 24 hours after contact, read-out: efficacy (mortality); for mortality at 4 mg/m2: surface concentration 4 mg/m^2, 30 min exposure; for mortality at 20 mg/m2: surface concentration 20 mg/m^2, 30 min exposure. As to the method:
Culex quinquefasciatus Test (CULXFA Surface Treatment & Contact Assay
(§1) Solvent: Aceton+2000 ppm rapeseed oil methyl ester (RME)
(§2) In order to produce a sufficient, active ingredient containing solution it is necessary to solve the test compound in the solvent-mix (acetone at 2 mg/ml/RME 2000 ppm). This solution is pipetted onto a glazed tile and after evaporation of the acetone, adult mosquitoes of the species Culex quinquefasciatus strain P00 are placed onto the dried surface. The exposure time is 30 minutes. Mortality in percent (%) is determined 24 hours after contact of the insects to the treated surface. 100% mortality means that all tested insects are dead, whereas 0% means that no insect died.

Test [2] concerns larvae of the banded cucumber beetle (Diabrotica balteata). Kind of test: Diabrotica balteata spray test. Conditions: Diabrotica balteata, 168 h; 100 g/ha (=32 μg/well), wheat seeds, after 7 days; read-out: efficacy (seedlings grown). In a few lines: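 Efficacy was read 7 days after infesting each unit with 10–20 banded cucumber beetle larvae, as % of seedlings growing like untreated, uninfested controls. Before infestation, wheat seeds germinated 1 day on agar (5 per well) were sprayed with the active ingredient. The active was formulated in acetone/DMF and diluted in water containing emulsifier.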

The test system of test [3] is adult unfed cat fleas (Ctenocephalides felis). Kind of test: Ctenocephalides felis oral test. The settings on record: 48 h, 100 ppm in citrated cattle blood, after 2 days. As to the method:
Ctenocephalides felis—Oral Test
Solvent: Dimethyl Sulfoxide
To produce a suitable preparation of active compound, 10 mg of active compound are dissolved in 0.5 mL solvent, and the concentrate is diluted with citrated cattle blood to the desired concentration.
Approximately 20 adult unfed cat fleas (Ctenocephalides felis) are placed in a flea chamber whose top and bottom is covered with gauze. A chamber whose bottom is sealed with parafilm, is filled with the blood-compound solution and placed on top of the flea chamber, so that the fleas can suck the blood. The blood chamber is heated to 37° C. whereas the flea chamber is kept at room temperature.
After 2 days mortality in % is determined. 100% means all the fleas have been killed; 0% means none of the fleas have been killed.

Test [4] has as its system green peach aphid (Myzus persicae). Kind of test: Myzus persicae spray test (MYZUPE). Conditions: in Brassica rapa, foliar, 120 h. Summed up:
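Chinese cabbage leaf disks infested with all instars of M. persicae sprayed with compound (acetone/DMF solvent, water with 1000 ppm alkylarylpolyglycol ether emulsifier) at the desired concentration. Percent mortality determined after 5 days; 100% = all aphids killed.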

Test [5] relates to adult mosquitoes Aedes aegypti strain MONHEIM. Kind of test: Aedes aegypti test (AEDSAE surface treatment & contact assay). Conditions: 24 hours after contact, read-out: efficacy (mortality); for mortality at 4 mg/m2: surface concentration 4 mg/m^2, 30 min exposure; for mortality at 20 mg/m2: surface concentration 20 mg/m^2, 30 min exposure. As to the method: Aedes aegypti Test (AEDSAE Surface Treatment & Contact Assay
as §1
In order to produce a sufficient, active ingredient containing solution it is necessary to solve the test compound in the solvent-mix (acetone at 2 mg/ml/RME 2000 ppm). This solution is pipetted onto a glazed tile and after evaporation of the acetone, adult mosquitoes of the species Aedes aegypti strain MONHEIM are placed onto the dried surface. The exposure time is 30 minutes. Mortality in percent (%) is determined 24 hours after contact of the insects to the treated surface. 100% mortality means that all tested insects are dead, whereas 0% means that no insect died.

Test [6] has as its system adult flies Musca domestica strain WHO-N. Kind of test: Musca domestica test (MUSCDO surface treatment & contact assay). The settings on record: 24 hours after contact, read-out: efficacy (mortality); for mortality at 4 mg/m2: surface concentration 4 mg/m^2, 30 min exposure; for mortality at 20 mg/m2: surface concentration 20 mg/m^2, 30 min exposure. As to the method:
Musca domestica Test (MUSCDO Surface Treatment & Contact Assay
as §1
In order to produce a sufficient, active ingredient containing solution it is necessary to solve the test compound in the solvent-mix (acetone at 2 mg/ml/RME 2000 ppm). This solution is pipetted onto a glazed tile and after evaporation of the acetone, adult flies of the species Musca domestica strain WHO-N are placed onto the dried surface. The exposure time is 30 minutes. Mortality in percent (%) is determined 24 hours after contact of the insects to the treated surface. 100% mortality means that all tested insects are dead, whereas 0% means that no insect died.

Test [7] has as its system adult mosquitoes Anopheles funestus strain FUMOZ-R. Kind of test: Anopheles funestus test (ANPHFU surface treatment & contact assay). The settings on record: 24 hours after contact, read-out: efficacy (mortality); for mortality at 4 mg/m2: surface concentration 4 mg/m^2, 30 min exposure; for mortality at 20 mg/m2: surface concentration 20 mg/m^2, 30 min exposure. As for the experimental part:
Anopheles funestus Test (ANPHFU Surface Treatment & Contact Assay
as §1
as §2, with “Anopheles funestus” for “Culex quinquefasciatus”, “FUMOZ-R (Hunt et al., Med. Vet. Entomol. 2005 September; 19(3): 271-275)” for “P00”

What is called mortality is the share of the test organisms that died. Turning to `C[C@H](NC(=O)c1cc(C(F)(F)F)cc(C(F)(F)F)c1)c1ncnn1-c1cnc(C(=O)N(C)CC2CC2)cn1` [Example I-008], the mortality at 4 mg/m2 in test [1], in test [5] and in test [6] was 80 to 100% throughout. Also, the mortality at 20 mg/m2 in test [1], in test [5] and in test [6] was 80 to 100% each time. Moreover, the pest or weed control at 32 µg/disc, 100 g/ha in test [2] was determined as 100%. Besides, the mortality at 100 ppm in test [3] was determined as 100%. In test [4], this molecule registered a mortality at 100 g/ha of 90%.
For `CNC(=O)c1cnc(-n2ncnc2[C@H](C)NC(=O)c2cc(OC(F)(F)F)cc(C3CC3)c2)cn1` [Example I-021], the mortality at 4 mg/m2 in test [1], in test [5] and in test [6] was 80 to 100% each time. Moreover, the mortality at 20 mg/m2 in test [1], in test [5] and in test [6] was 80 to 100% in each case. In test [2], the pest or weed control at 32 µg/disc, 100 g/ha stood at 100%. For the same molecule, the mortality at 100 g/ha in test [4] was 90%.
On to `CNC(=O)c1cnc(-n2ncnc2[C@H](C)NC(=O)c2cc(C(F)(F)F)cc(C(F)(F)F)c2)cn1` [Example I-009], for which the mortality at 4 mg/m2 in test [1] is 80 to 100%; in test [7] it was 85 to 100%; in test [5], 80 to 100%; in test [6], 80 to 100%. Besides, the mortality at 20 mg/m2 in test [1] fell in the range of 80 to 100%; in test [7] it was 85 to 100%; in test [5], 80 to 100%; in test [6], 80 to 100%. In test [3], this molecule displayed a mortality at 100 ppm of 100%. In test [4], this molecule returned a mortality at 100 g/ha of 90%.
With `C[C@H](NC(=O)c1cc(C(F)(F)F)cc(C(F)(F)F)c1)c1ncnn1-c1cnc(C(=O)N(C)C2CC2)cn1` [Example I-007], the mortality at 4 mg/m2 in test [1], in test [5] and in test [6] was 80 to 100% in each case. Also, the mortality at 20 mg/m2 in test [1], in test [5] and in test [6] was 80 to 100% throughout. For the same molecule, the pest or weed control at 32 µg/disc, 100 g/ha in test [2] came out at 100%. Further, the mortality at 100 ppm in test [3] turned out to be 100%. The mortality at 100 g/ha in test [4] worked out at 90%.
On to `C[C@H](NC(=O)c1cc(OC(F)(F)F)cc(C2CC2)c1)c1ncnn1-c1cnc(C(=O)N(C)C)cn1` [Example I-002], for which the mortality at 20 mg/m2 is 80 to 100% in test [1], 85 to 100% in test [7], 80 to 100% in test [5] and 80 to 100% in test [6]. The mortality at 4 mg/m2 lay within 85 to 100% in test [7] and 80 to 100% in test [5]. Further, the pest or weed control at 32 µg/disc, 100 g/ha in test [2] amounted to 100%. For the same molecule, the mortality at 100 ppm in test [3] stood at 100%. This molecule yielded a mortality at 100 g/ha in test [4] of 90%.
